Measurements from paper PMC6934184, “Selective DNA-PKcs inhibition extends the therapeutic index of localized radiotherapy and chemotherapy” (The Journal of Clinical Investigation, 2019).

Molecular target: T1, ADRBK1 (GRK2) (Homo sapiens, UniProt P25098)
T1 construct: purchased Thermo Fisher Scientific (Life Technologies) SelectScreen
Experiment: SelectScreen Z'LYTE
Assay type: biochemical
How it was run: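 SelectScreen broad panel; activity (Z'LYTE, Adapta) plus binding formats. ATP: Km app for CSF1R Z'LYTE; 10 for CAMK1 Adapta. Readout = % per kinase.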

T1 sequence (P25098 whole entry): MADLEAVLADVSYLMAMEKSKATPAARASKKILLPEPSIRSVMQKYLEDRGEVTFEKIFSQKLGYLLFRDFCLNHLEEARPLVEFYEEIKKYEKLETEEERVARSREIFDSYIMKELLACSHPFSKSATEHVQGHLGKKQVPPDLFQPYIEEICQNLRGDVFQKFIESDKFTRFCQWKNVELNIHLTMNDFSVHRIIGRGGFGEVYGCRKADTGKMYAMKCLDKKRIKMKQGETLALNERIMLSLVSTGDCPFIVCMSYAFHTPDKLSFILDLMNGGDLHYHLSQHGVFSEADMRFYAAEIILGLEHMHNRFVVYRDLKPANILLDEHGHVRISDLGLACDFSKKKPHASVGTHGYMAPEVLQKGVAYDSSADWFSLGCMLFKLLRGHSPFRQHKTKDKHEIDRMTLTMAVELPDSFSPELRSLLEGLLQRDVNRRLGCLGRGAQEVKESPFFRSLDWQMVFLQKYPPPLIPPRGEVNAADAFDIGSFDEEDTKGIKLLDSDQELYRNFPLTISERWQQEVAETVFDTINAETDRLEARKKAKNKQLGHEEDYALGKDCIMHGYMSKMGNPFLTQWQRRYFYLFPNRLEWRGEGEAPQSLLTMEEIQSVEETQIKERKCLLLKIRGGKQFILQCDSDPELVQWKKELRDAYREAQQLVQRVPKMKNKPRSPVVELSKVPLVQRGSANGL

CN(C(=O)CN1CCOCC1)c1ccc2sc3c(-c4cccc5c(=O)cc(N6CC7CCC(C6)O7)oc45)cccc3c2c1 [NU5455]
inhibition at 1 µM: -2%
